In general, IC50 refers to the concentration needed to halve the response being measured.

The structures appear in SMILES notation. Read-outs that look alike come from different tables or passages of the source.

The test system of data set [1] is P388 murine leukemia cell line. As to the kind of experiment: In vivo antineoplastic test, P388 leukemia in mice. More on the design: species or system murine (male and female CD2Fl mice). On the procedure: (§1) Compounds of the present invention are tested for antineoplastic activity by the following in vitro L1210 and in vivo P388 leukemia protocols:
In Vivo Antineoplastic Test Protocol
The activities of compounds of the present invention are tested against the P388 murine leukemia cell line in vivo. This protocol tests the effectiveness of a given compounds to inhibit the growth of the transplanted P388 murine leukemia cell line in male and female CD2Fl mice. Each test included a group of six or seven mice. The test is described in detail in Cancer Chemotherapy Reports, Part 3, Volume 3, pp 1-85 (1972).
The tumor cell line is transplanted into the test animals by intraperitoneal injection of ascites fluid containing the cell line. […]
A compound is designated "toxic" if, at a given dose, no animal survives after four days following first injection of the test compound. A ratio of survival time for treated animals (T) animals relative to control (C) animals is calculated for each nontoxic dose. A criterion for efficacy is a ratio of (T/C)×100 equal to or greater than 125.

For data set [2] the following is noted: background art; cited from earlier work.
Data set [3] has as its system tumors, including small-cell carcinoma of the lung, acute leukemia, malignant lymphoma, and testicular cancer. As to conditions: background art; cited from earlier work.
For data set [4], the system named is L1210 murine leukemia cell line. The experiment in a line: In vitro antineoplastic test, L1210 leukemia (MTT, 3 days). In kind it is cell-based. The note with it: Mus musculus, read-out: L1210 Leukemia In Vitro Mean IC50. Here is the method: as §1
In Vitro Antineoplastic Test Protocol
The activities of compounds of the present invention are tested against the L1210 murine leukemia cell line in vitro.
[…] cells are grown in RPMI 1640 culture medium containing 10% fetal bovine serum and gentamicin (50 micrograms per milliliter). A stock solution of the test compound is prepared in the appropriate solvent and further diluted in culture medium. Sequential twofold dilutions of drug are performed with 50 microliter transfers in 96-well microliter plates followed by the addition of 50 microliters of cell suspension containing 4×10^4 cells per milliliter.
After incubation at 37° C. in a humidified atmosphere of 5% CO2 in air for three days, 10 microliters of MTT [5 milligrams/milliliter 3-(4,5-dimethyl-2-thiazol)-2,5-diphenyltetrazolium bromide]are added to each well and the plates incubated at 37° C. for 3 hours before the addition of 100 microliters of 0.15 N HCl in isopropanol. Absorbance is read within one hour on a Dynatech MR 600 plate reader at 2 test wavelength of 570 nm and a reference wavelength of 630 nm. A microcomputer program converts optical density readings to percent growth and determines IC50 values (the amount of drug required to reduce absorbance to 50% of untreated controls) using nonlinear regression analysis.

[5] abbreviates: Mus musculus, P388, ip, 120 h, read-out: P388 Leukemia % T/C (survival time treated/control x 100).

`COc1cc([C@@H]2c3cc4c(cc3[C@@H](O[C@@H]3O[C@@H]5CO[C@@H](C)O[C@H]5[C@H](O)[C@H]3O)[C@H]3COC(=O)[C@H]23)OCO4)cc(OC)c1O` [Etoposide, etoposide, reference compound]: in data set [1] (Mus musculus, P388, read-out: P388 Leukemia % T/C (survival time treated/control x 100)), the response vs control in vivo at 40 mg/kg stood at 295%. Besides, the 60-days survivors in data set [1] (P388, 40 mg/kg/inj, once daily on Days 1, 5, and 9) was 4/10. The “toxicity (in words)” value in data set [2] is on record as “reduced toxicity”. The “antineoplastic activity (in words)” value in data set [3] is “exhibited antineoplastic activity against certain tumors, including small-cell carcinoma of the lung, acute leukemia, malignant lymphoma, and testicular cancer”.
For the compound `COc1cc([C@@H]2c3cc4c(cc3[C@@H](OCCN(C)CCO)[C@H]3COC(=O)[C@H]23)OCO4)cc(OC)c1O` [Example 2], the IC50 in data set [4] (L1210, 72 h) is 103 nM. Moreover, the response vs control in vivo at 0.38 mg/kg in data set [1] (setting [5]) turned out to be 170%.
On to `COc1cc([C@@H]2c3cc4c(cc3[C@@H](OCCN3CCOCC3)[C@H]3COC(=O)[C@H]23)OCO4)cc(OC)c1O` [Example 3, [5R-(5α,5aβ,8aα,9β)]-5,8,8a,9-tetrahydro-5-(4-hydroxy-3,5-dimethoxyphenyl)-9-[2-(4morpholinyl)ethoxy]furo[3',4':6,7]naphtho[2,3-d]-1,3-dioxol-6(5aH)-one], for which the IC50 in data set [4] (L1210, 72 h) turned out to be 235 nM. Further, the response vs control in vivo at 3.1 mg/kg in data set [1] (setting [5]) was found to be 179%.
On to `COc1cc([C@@H]2c3cc4c(cc3[C@@H](OCCN(CCO)CCO)[C@H]3COC(=O)[C@H]23)OCO4)cc(OC)c1O` [Example 4], for which the IC50 in data set [4] (L1210, 72 h) worked out at 336 nM. The response vs control in vivo at 1.5 mg/kg in data set [1] (setting [5]) was found to be 160%.
As to `CCN(CC)CCO[C@@H]1c2cc3c(cc2[C@@H](c2cc(OC)c(O)c(OC)c2)[C@H]2C(=O)OC[C@@H]21)OCO3` [Example 5, [5R-(5α,5aβ,8aα,9β)]-9-[2-(diethylamino)ethoxy]-5,8,8a,9-tetrahydro-5-(4-hydroxy-3,5-dimethoxyphenyl)furo[3',4':6,7]naphtho[2,3-d]-1,3-dioxol-6(5aH)-one], in data set [4] (L1210, 72 h), the IC50 is 198 nM. Also, the response vs control in vivo at 3.1 mg/kg in data set [1] (setting [5]) came out at 140%.
As to `CCN(CC)CCCO[C@@H]1c2cc3c(cc2[C@@H](c2cc(OC)c(O)c(OC)c2)[C@H]2C(=O)OC[C@@H]21)OCO3` [Example 6, [5R-(5α,5aβ,8aα,9β)]-9-3-[(diethylamino)propoxy]-5,8,8a,9-tetrahydro-5-(4-hydroxy-3,5-dimethoxyphenyl)furo[3',4':6,7]naphtho[2,3-d]-1,3-dioxol-6(5aH)-one], in data set [4] (L1210, 72 h), the IC50 was found to be 250 nM. Further, the response vs control in vivo at 2 mg/kg in data set [1] (setting [5]) was 137%.
Take `CCN(CC)CCOCCO[C@@H]1c2cc3c(cc2[C@@H](c2cc(OC)c(O)c(OC)c2)[C@H]2C(=O)OC[C@@H]21)OCO3` [Example 7, [5R-(5α,5aβ,8aα,9β)]-9-[2-[2-(diethyl-amino)ethoxy]ethoxy]-5,8,8a,9-tetrahydro-5-(4-hydroxy-3,5-dimethoxyphenyl)furo[3',4':6,7]naphtho[2,3-d]-1,3-dioxol-6(5aH)-one]: the concentration for half-maximal inhibition (IC50) in data set [4] (L1210, 72 h) was 253 nM. In data set [1] (setting [5]), the response vs control in vivo at 50 mg/kg turned out to be 170%.
As for `COc1cc([C@@H]2c3cc4c(cc3[C@@H](OCCN3CCCC3=O)[C@H]3COC(=O)[C@H]23)OCO4)cc(OC)c1O` [Example 8, [5S-(5α,5aβ,8aα,9β)]-1-[2-[[5,5a,6,8,8a,9-hexahydro-9-(4-hydroxy-3,5-dimethoxyphenyl)-8-oxofuro-[3',4':6,7]naphtho[2,3-d]-1,3-dioxol-5-yl]oxy]ethyl]-2-pyrrolidinone], the IC50 in data set [4] (L1210, 72 h) is 500 nM. The response vs control in vivo at 100 mg/kg in data set [1] (setting [5]) worked out at 167%.
For `COc1cc([C@@H]2c3cc4c(cc3[C@@H](SCCN3CCOCC3)[C@H]3COC(=O)[C@H]23)OCO4)cc(OC)c1O` [Example 9, [5R-(5α,5aβ,8aα,9β)]-5,8,8a,9-tetrahydro-5-(4-hydroxy-3,5-methoxyphenyl)-9-[[2-(4-morpholinyl)ethyl]thio]furo[3',4':6,7]naphtho[2,3-d]1,3-dioxol-6(5aH)-one], in data set [4] (L1210, 72 h), the IC50 is 1390 nM. Also, the response vs control in vivo at 50 mg/kg in data set [1] (setting [5]) is 127%.
Consider `COc1cc([C@@H]2c3cc4c(cc3[C@@H](SCC(O)CO)[C@H]3COC(=O)[C@H]23)OCO4)cc(OC)c1O` (stereo partly drawn) [Example 10], for which the IC50 in data set [4] (72 h, L1210 cells, 3 days at 37° C., MTT) was 767 nM. In addition, the response vs control in vivo at 12.5 mg/kg in data set [1] (setting [5]) was 114%.
Consider `COc1cc([C@@H]2c3cc4c(cc3[C@@H](S[C@@H]3O[C@@H]5COC(C)O[C@H]5[C@H](O)[C@H]3O)[C@H]3COC(=O)[C@H]23)OCO4)cc(OC)c1O` (stereo partly drawn) [Example 11, (5α,5aα,8aα,9β)-9-[(4,6-O-ethylidene-β-D-glucopyranosyl)thio]-5,8,8a,9-tetrahydro-5-(4-hydroxy-3,5-dimethoxyphenyl)furo[3',4':6,7]naphtho[2,3-d]-1,3-dioxol-6(5aH)-one], for which the IC50 in data set [4] (L1210, 72 h) amounted to 305 nM. The response vs control in vivo at 50 mg/kg in data set [1] (setting [5]) amounted to 182%. For the same compound, in data set [1] (P388, 50 mg/kg/inj, intraperitoneal once daily for five days), the 40-day survivors was 3/6. The “antitumor activity (in words)” value in data set [1] (conclusion from the table (L1210 and P388)) is “highly active”.
As to `COc1cc([C@@H]2c3cc4c(cc3[C@H](O)[C@H]3COC(=O)[C@H]23)OCO4)cc(OC)c1OC` [podophyllotoxin], the “toxicity (in words)” value in data set [2] is reported as “extremely toxic”. The “antineoplastic activity (in words)” value in data set [3] was “well documented”.
In the case of `COc1cc([C@@H]2c3cc4c(cc3[C@@H](O[C@@H]3O[C@@H]5CO[C@@H](c6cccs6)O[C@H]5[C@H](O)[C@H]3O)[C@H]3COC(=O)[C@H]23)OCO4)cc(OC)c1O` [teniposide], the “toxicity (in words)” value in data set [2] is given as “reduced toxicity”. Besides, the “antineoplastic activity (in words)” value in data set [3] was “exhibited antineoplastic activity against certain tumors, including small-cell carcinoma of the lung, acute leukemia, malignant lymphoma, and testicular cancer”.

These data come from patent US5061791A, “4-bromo-4'-demethylepipodophyllotoxin derivatives” (Warner-Lambert Company, priority 1989, dated 1991).
